Tests used:
[1] = test system: Phosphatidylinositol 4,5-bisphosphate 3-kinase catalytic subunit alpha isoform (Homo sapiens), P42336 [C420R]; conditions: Compound concentration 1000.0 nM
[2] = molecular target: Tyrosine-protein kinase ITK/TSK (Homo sapiens) (UniProt Q08881); conditions: Compound concentration 1000.0 nM
[3] = molecular target: Proto-oncogene tyrosine-protein kinase ROS (Homo sapiens) (UniProt P08922); conditions: Compound concentration 1000.0 nM
[4] = molecular target: Serine/threonine-protein kinase PAK 3 (Homo sapiens) (UniProt O75914); conditions: Compound concentration 1000.0 nM
[5] = molecular target: Cyclin-dependent kinase 3 (Homo sapiens) (UniProt Q00526); conditions: Compound concentration 1000.0 nM
Sequence of Cyclin-dependent kinase 3 (Homo sapiens) (Q00526 whole entry, looked up): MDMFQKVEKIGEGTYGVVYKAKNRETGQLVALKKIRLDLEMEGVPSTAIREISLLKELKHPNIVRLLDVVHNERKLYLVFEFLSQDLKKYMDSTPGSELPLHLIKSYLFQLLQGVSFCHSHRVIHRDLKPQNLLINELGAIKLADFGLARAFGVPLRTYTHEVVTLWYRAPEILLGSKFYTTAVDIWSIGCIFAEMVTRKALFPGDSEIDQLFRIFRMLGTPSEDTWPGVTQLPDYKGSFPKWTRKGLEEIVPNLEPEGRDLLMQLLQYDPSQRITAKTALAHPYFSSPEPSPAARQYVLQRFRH

[6] = molecular target: 5'-AMP-activated protein kinase catalytic subunit alpha-1 (Homo sapiens) (UniProt Q13131); conditions: Compound concentration 1000.0 nM
[7] = test system: Epidermal growth factor receptor (Homo sapiens), P00533 [L858R,T790M]; conditions: Compound concentration 1000.0 nM
[8] = molecular target: Receptor-interacting serine/threonine-protein kinase 1 (Homo sapiens) (UniProt Q13546); conditions: Compound concentration 1000.0 nM
[9] = molecular target: RAC-alpha serine/threonine-protein kinase (Homo sapiens) (UniProt P31749); conditions: Compound concentration 1000.0 nM
[10] = molecular target: Mitogen-activated protein kinase kinase kinase 1 (Homo sapiens) (UniProt Q13233); conditions: Compound concentration 1000.0 nM
[11] = molecular target: Serine/threonine-protein kinase TNNI3K (Homo sapiens) (UniProt Q59H18); conditions: Compound concentration 1000.0 nM
Sequence of Serine/threonine-protein kinase TNNI3K (Homo sapiens) (Q59H18 whole entry): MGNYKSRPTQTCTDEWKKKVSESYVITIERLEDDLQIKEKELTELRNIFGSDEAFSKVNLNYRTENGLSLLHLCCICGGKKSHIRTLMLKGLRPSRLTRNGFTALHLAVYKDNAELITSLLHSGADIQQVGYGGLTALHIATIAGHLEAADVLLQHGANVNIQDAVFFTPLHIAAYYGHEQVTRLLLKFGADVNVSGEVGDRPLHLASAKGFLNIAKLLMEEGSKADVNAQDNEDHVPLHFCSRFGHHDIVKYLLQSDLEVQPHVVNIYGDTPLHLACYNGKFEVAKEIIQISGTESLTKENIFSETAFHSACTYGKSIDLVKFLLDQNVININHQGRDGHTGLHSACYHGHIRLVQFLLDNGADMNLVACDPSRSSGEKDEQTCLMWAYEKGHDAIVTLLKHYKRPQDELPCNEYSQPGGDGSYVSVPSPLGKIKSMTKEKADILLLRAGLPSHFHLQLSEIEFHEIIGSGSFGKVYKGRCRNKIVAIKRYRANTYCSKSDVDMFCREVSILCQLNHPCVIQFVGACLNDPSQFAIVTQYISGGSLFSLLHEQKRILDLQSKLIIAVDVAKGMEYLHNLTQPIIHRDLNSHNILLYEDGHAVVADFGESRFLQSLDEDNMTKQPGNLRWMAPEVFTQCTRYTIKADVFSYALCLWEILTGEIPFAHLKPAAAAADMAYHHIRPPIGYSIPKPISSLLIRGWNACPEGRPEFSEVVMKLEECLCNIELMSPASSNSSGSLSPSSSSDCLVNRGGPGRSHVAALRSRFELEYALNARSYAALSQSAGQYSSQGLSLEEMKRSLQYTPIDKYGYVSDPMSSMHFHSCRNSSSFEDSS

[12] = molecular target: Serine/threonine-protein kinase WNK4 (Homo sapiens) (UniProt Q96J92); conditions: Compound concentration 1000.0 nM
Rattus norvegicus = organism: Rattus norvegicus; conditions: Compound concentration 10.0 uM
[13] = molecular target: Serine/threonine-protein kinase Nek3 (Homo sapiens) (UniProt P51956); conditions: Compound concentration 1000.0 nM
Sequence of Serine/threonine-protein kinase Nek3 (Homo sapiens) (P51956 whole entry): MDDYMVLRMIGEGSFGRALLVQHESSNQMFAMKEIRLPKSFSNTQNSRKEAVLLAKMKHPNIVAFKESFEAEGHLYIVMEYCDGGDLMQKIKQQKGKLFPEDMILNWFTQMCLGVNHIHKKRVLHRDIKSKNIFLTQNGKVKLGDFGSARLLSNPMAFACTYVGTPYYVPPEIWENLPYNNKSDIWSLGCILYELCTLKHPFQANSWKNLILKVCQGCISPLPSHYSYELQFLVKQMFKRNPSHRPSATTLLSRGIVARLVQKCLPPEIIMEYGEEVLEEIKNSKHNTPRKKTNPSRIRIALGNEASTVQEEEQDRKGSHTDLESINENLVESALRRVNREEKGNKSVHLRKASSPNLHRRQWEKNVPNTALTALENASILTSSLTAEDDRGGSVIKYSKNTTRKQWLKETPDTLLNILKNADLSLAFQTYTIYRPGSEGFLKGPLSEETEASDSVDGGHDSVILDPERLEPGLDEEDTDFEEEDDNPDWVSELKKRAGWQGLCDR

[14] = molecular target: AP2-associated protein kinase 1 (Homo sapiens) (UniProt Q2M2I8); conditions: Compound concentration 1000.0 nM
[15] = molecular target: Ephrin type-B receptor 2 (Homo sapiens) (UniProt P29323); conditions: Compound concentration 1000.0 nM
[16] = molecular target: Serine/threonine-protein kinase OSR1 (Homo sapiens) (UniProt O95747); conditions: Compound concentration 1000.0 nM
[17] = molecular target: Serine/threonine-protein kinase PLK3 (Homo sapiens) (UniProt Q9H4B4); conditions: Compound concentration 1000.0 nM
[18] = molecular target: Non-receptor tyrosine-protein kinase TYK2 (Homo sapiens) (UniProt P29597); conditions: Compound concentration 1000.0 nM
[19] = molecular target: Dual specificity mitogen-activated protein kinase kinase 5 (Homo sapiens) (UniProt Q13163); conditions: Compound concentration 1000.0 nM
[20] = molecular target: Rhodopsin kinase GRK7 (Homo sapiens) (UniProt Q8WTQ7); conditions: Compound concentration 1000.0 nM
[21] = molecular target: Angiopoietin-1 receptor (Homo sapiens) (UniProt Q02763); conditions: Compound concentration 1000.0 nM
Sequence of Angiopoietin-1 receptor (Homo sapiens) (Q02763 whole entry): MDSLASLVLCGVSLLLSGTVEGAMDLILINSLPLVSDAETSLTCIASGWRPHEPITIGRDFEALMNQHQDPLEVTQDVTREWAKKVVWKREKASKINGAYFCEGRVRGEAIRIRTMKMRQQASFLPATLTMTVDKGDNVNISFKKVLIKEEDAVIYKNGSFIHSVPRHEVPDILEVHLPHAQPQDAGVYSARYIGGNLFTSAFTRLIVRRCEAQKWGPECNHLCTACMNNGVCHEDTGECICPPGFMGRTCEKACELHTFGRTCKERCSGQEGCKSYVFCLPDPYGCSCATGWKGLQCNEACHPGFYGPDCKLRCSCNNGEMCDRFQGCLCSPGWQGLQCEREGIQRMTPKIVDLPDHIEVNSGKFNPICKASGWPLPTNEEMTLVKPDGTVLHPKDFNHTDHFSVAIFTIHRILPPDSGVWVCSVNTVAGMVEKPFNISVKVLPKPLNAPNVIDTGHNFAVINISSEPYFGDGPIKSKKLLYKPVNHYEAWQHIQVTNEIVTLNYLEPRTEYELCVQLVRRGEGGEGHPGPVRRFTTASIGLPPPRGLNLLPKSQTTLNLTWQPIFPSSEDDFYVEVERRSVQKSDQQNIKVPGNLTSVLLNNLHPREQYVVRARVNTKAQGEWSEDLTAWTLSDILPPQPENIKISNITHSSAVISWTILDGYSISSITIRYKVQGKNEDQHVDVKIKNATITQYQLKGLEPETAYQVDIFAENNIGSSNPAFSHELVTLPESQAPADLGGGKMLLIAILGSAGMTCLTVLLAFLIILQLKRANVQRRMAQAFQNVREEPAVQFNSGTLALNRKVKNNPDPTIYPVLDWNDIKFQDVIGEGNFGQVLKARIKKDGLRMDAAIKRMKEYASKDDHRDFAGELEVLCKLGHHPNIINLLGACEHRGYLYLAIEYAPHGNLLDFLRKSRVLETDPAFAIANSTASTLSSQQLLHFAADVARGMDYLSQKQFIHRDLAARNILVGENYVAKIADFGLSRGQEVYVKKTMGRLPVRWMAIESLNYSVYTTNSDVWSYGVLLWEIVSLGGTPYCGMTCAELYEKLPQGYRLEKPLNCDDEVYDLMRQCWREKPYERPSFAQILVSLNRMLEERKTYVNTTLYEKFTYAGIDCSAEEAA

[22] = test system: Epidermal growth factor receptor (Homo sapiens), P00533 [G719C]; conditions: Compound concentration 1000.0 nM
[23] = molecular target: 5-hydroxytryptamine receptor 2C (Homo sapiens) (UniProt P28335); conditions: Compound concentration 10.0 uM
[24] = molecular target: Dual serine/threonine and tyrosine protein kinase (Homo sapiens) (UniProt Q6XUX3); conditions: Compound concentration 1000.0 nM
[25] = test system: Hepatocyte growth factor receptor (Homo sapiens), P08581 [Y1235D]; conditions: Compound concentration 1000.0 nM
[26] = molecular target: Calcium/calmodulin-dependent protein kinase type II subunit gamma (Homo sapiens) (UniProt Q13555); conditions: Compound concentration 1000.0 nM
Sequence of Calcium/calmodulin-dependent protein kinase type II subunit gamma (Homo sapiens) (Q13555 whole entry): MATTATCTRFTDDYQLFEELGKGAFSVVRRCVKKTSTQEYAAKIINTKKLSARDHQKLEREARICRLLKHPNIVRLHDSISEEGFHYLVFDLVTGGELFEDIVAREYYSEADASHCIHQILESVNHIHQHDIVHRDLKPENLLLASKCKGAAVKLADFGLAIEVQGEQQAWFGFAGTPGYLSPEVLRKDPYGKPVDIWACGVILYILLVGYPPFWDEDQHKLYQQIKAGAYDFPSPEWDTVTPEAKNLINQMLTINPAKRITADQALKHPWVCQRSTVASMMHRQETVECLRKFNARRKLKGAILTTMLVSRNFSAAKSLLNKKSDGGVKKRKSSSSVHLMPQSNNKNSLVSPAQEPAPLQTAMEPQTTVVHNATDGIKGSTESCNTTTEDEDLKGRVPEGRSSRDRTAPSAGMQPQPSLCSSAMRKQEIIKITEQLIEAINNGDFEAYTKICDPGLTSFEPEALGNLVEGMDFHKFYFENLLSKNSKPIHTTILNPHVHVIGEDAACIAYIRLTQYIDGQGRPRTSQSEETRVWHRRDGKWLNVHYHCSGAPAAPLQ

[27] = molecular target: Sodium-dependent dopamine transporter (Homo sapiens, UniProt Q01959); conditions: Compound concentration 10.0 uM
[28] = molecular target: Dual specificity mitogen-activated protein kinase kinase 1 (Homo sapiens) (UniProt Q02750); conditions: Compound concentration 1000.0 nM
[29] = test system: Hepatocyte growth factor receptor (Homo sapiens), P08581 [M1250T]; conditions: Compound concentration 1000.0 nM
[30] = molecular target: Tyrosine-protein kinase receptor TYRO3 (Homo sapiens) (UniProt Q06418); conditions: Compound concentration 1000.0 nM
[31] = test system: Tyrosine-protein kinase ABL1 (Homo sapiens), P00519 [H396P]; conditions: Compound concentration 1000.0 nM
[32] = molecular target: Tyrosine-protein kinase Fgr (Homo sapiens) (UniProt P09769); conditions: Compound concentration 1000.0 nM
[33] = test system: Mast/stem cell growth factor receptor Kit (Homo sapiens), P10721 [V559D,T670I]; conditions: Compound concentration 1000.0 nM
[34] = molecular target: Ephrin type-A receptor 5 (Homo sapiens) (UniProt P54756); conditions: Compound concentration 1000.0 nM
[35] = molecular target: Mitogen-activated protein kinase kinase kinase kinase 4 (Homo sapiens) (UniProt O95819); conditions: Compound concentration 1000.0 nM
[36] = molecular target: Sigma non-opioid intracellular receptor 1 (Homo sapiens, UniProt Q99720); conditions: Compound concentration 10.0 uM
[37] = molecular target: Mast/stem cell growth factor receptor Kit (Homo sapiens) (UniProt P10721); conditions: Compound concentration 1000.0 nM
[38] = molecular target: Dual specificity mitogen-activated protein kinase kinase 7 (Homo sapiens) (UniProt O14733); conditions: Compound concentration 1000.0 nM
Sequence of Dual specificity mitogen-activated protein kinase kinase 7 (Homo sapiens) (O14733 whole entry): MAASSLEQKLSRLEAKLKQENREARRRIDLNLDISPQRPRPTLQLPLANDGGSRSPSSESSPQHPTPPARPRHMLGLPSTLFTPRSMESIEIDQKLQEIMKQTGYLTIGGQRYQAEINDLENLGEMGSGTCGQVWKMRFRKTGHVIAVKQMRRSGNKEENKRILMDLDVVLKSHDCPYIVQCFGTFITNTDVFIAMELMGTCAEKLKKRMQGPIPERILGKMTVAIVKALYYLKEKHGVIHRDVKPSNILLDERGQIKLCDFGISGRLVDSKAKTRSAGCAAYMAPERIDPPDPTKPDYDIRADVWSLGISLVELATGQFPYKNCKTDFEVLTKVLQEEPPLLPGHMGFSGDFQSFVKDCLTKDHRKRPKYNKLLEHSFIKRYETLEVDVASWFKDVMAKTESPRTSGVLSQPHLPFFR

[39] = molecular target: Muscarinic acetylcholine receptor M2 (Homo sapiens) (UniProt P08172); conditions: Compound concentration 10.0 uM
[40] = molecular target: Serine/threonine-protein kinase ICK (Homo sapiens) (UniProt Q9UPZ9); conditions: Compound concentration 1000.0 nM
Sequence of Serine/threonine-protein kinase ICK (Homo sapiens) (Q9UPZ9 whole entry): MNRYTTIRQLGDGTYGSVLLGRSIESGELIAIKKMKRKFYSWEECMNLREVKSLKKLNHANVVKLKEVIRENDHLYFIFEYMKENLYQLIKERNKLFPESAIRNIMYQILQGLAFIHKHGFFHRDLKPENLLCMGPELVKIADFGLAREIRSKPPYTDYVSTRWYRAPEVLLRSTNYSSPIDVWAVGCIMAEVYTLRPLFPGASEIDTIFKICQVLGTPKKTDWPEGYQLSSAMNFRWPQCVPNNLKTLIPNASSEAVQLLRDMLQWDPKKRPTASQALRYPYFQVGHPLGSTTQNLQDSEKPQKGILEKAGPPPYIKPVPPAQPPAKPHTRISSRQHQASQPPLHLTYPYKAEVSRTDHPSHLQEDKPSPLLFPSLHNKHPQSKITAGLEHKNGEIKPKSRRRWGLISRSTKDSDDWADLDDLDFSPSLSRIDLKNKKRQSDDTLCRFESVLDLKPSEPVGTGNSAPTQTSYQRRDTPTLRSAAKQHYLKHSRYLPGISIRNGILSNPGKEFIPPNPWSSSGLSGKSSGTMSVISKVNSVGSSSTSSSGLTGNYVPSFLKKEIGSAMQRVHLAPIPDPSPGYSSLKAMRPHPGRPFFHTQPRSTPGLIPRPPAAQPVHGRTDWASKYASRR

[41] = molecular target: Mitogen-activated protein kinase 10 (Homo sapiens) (UniProt P53779); conditions: Compound concentration 1000.0 nM
[42] = molecular target: Alpha-2C adrenergic receptor (Homo sapiens) (UniProt P18825); conditions: Compound concentration 10.0 uM
Sequence of Alpha-2C adrenergic receptor (Homo sapiens) (P18825 whole entry): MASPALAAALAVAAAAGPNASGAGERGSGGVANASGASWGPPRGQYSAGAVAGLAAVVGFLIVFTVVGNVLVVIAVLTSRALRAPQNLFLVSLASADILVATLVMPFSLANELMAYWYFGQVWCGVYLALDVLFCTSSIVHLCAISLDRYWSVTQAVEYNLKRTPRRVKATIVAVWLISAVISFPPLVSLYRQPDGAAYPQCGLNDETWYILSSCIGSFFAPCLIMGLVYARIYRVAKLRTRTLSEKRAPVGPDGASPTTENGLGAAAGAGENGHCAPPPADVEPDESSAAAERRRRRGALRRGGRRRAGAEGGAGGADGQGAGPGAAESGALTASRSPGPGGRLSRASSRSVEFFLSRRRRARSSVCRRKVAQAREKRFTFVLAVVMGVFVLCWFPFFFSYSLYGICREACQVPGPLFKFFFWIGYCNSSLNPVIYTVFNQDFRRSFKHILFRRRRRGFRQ

[43] = molecular target: Activated CDC42 kinase 1 (Homo sapiens) (UniProt Q07912); conditions: Compound concentration 1000.0 nM
[44] = molecular target: Cyclin-dependent kinase 2 (Homo sapiens) (UniProt P24941); conditions: Compound concentration 1000.0 nM

CC(=O)Nc1c(C(C)=O)c(=O)n(C)c2nc(-c3ccc(Cl)cc3Cl)c(-c3ccc(Cl)cc3)cc12 [NAPHTHYRIDINONE]
residual activity [1]: 88%
residual activity [2]: 100%
residual activity [3]: 99%
residual activity [4]: 100%
residual activity [5]: 100%
residual activity [6]: 100%
residual activity [7]: 100%
residual activity [8]: 100%
residual activity [9]: 100%
residual activity [10]: 100%
residual activity [11]: 100%
residual activity [12]: 100%
inhibition (Rattus norvegicus): 82.7%
residual activity [13]: 100%
residual activity [14]: 100%
residual activity [15]: 100%
residual activity [16]: 93%
residual activity [17]: 100%
residual activity [18]: 100%
residual activity [19]: 94%
residual activity [20]: 100%
residual activity [21]: 91%
residual activity [22]: 100%
inhibition [23]: 17.5%
residual activity [24]: 100%
residual activity [25]: 100%
residual activity [26]: 100%
inhibition [27]: 36.4%
residual activity [28]: 100%
residual activity [29]: 100%
residual activity [30]: 68%
residual activity [31]: 100%
residual activity [32]: 100%
residual activity [33]: 100%
residual activity [34]: 100%
residual activity [35]: 100%
inhibition [36]: 50%
residual activity [37]: 100%
residual activity [38]: 100%
inhibition [39]: -7.96%
residual activity [40]: 100%
residual activity [41]: 100%
inhibition [42]: 3.44%
residual activity [43]: 100%
residual activity [44]: 100%

CC(=O)c1c(NS(C)(=O)=O)c2cc(-c3ccc(Cl)cc3)c(-c3ccc(Cl)cc3Cl)nc2n(C)c1=O [MRL-CB1-NC]
residual activity [1]: 93%
residual activity [2]: 97%
residual activity [3]: 100%
residual activity [4]: 100%
residual activity [5]: 100%
residual activity [6]: 100%
residual activity [7]: 89%
residual activity [8]: 97%
residual activity [9]: 89%
residual activity [10]: 94%
residual activity [11]: 100%
residual activity [12]: 96%
inhibition (Rattus norvegicus): 36.9%
residual activity [13]: 67%
residual activity [14]: 100%
residual activity [15]: 100%
residual activity [16]: 79%
residual activity [17]: 89%
residual activity [18]: 89%
residual activity [19]: 80%
residual activity [20]: 83%
residual activity [21]: 90%
residual activity [22]: 100%
inhibition [23]: 81.8%
residual activity [24]: 100%
residual activity [25]: 95%
residual activity [26]: 100%
inhibition [27]: 67.1%
residual activity [28]: 81%
residual activity [29]: 90%
residual activity [30]: 64%
residual activity [31]: 100%
residual activity [32]: 100%
residual activity [33]: 100%
residual activity [34]: 100%
residual activity [35]: 100%
inhibition [36]: -7.46%
residual activity [37]: 100%
residual activity [38]: 100%
inhibition [39]: -4.45%
residual activity [40]: 77%
residual activity [41]: 78%
inhibition [42]: 78.9%
residual activity [43]: 92%
residual activity [44]: 100%
